ChEMBL document CHEMBL1909046, “DrugMatrix in vitro pharmacology data”

Experiments:
[1] = DRUGMATRIX: Calcium Channel Type L, Dihydropyridine radioligand binding (ligand: [3H] Nitrendipine); assay type: cell membranes, Rattus norvegicus, Wistar, Cerebral cortex, Membrane; details: Not Active = under 50% inhibition at 10 µM
[2] = target: Carbonic anhydrase 2 (Homo sapiens, UniProt P00918); assay: DRUGMATRIX: Carbonic Anhydrase II enzyme inhibition (substrate: 4-Nitrophenyl acetate (4-NPA)); assay type: tissue-based, Erythrocyte; details: erythrocyte; Not Active = under 50% inhibition at 10 µM
[3] = target: T1, Leukotriene C4 synthase (Cavia porcellus, UniProt A6XA80); assay type: tissue-based, Lung;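 also: enzyme inhibition assay of leukotriene C4 synthase, using LTA4 as the substrate; in other assays of this panel Not Active means under 50% inhibition at 10 µM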
T1 sequence (A6XA80 whole entry): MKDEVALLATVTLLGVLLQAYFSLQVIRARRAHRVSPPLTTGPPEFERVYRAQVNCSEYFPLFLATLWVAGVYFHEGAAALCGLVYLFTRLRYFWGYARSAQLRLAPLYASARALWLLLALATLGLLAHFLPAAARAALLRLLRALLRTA

[4] = target: Melanocortin receptor 5 (Homo sapiens, UniProt P33032); assay type: cell membranes, HEK293, Membrane; details: hek293; also: in other assays of this panel Not Active means under 50% inhibition at 10 µM
Melanocortin receptor 5, sequence (P33032 whole entry): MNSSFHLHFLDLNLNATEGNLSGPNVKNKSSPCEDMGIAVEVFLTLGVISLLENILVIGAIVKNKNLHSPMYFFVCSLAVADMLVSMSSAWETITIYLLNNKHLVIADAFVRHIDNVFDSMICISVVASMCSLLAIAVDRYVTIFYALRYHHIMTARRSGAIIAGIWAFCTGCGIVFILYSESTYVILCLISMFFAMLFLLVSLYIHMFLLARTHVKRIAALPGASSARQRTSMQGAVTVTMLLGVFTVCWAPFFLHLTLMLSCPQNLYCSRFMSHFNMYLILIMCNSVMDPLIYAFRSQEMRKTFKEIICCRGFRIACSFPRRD

[5] = target: T2, Muscarinic acetylcholine receptor M5 (Homo sapiens, UniProt P08912); assay type: cell membranes, Membrane; details: cho-k1; also: in other assays of this panel Not Active means under 50% inhibition at 10 µM
T2 sequence (P08912 whole entry): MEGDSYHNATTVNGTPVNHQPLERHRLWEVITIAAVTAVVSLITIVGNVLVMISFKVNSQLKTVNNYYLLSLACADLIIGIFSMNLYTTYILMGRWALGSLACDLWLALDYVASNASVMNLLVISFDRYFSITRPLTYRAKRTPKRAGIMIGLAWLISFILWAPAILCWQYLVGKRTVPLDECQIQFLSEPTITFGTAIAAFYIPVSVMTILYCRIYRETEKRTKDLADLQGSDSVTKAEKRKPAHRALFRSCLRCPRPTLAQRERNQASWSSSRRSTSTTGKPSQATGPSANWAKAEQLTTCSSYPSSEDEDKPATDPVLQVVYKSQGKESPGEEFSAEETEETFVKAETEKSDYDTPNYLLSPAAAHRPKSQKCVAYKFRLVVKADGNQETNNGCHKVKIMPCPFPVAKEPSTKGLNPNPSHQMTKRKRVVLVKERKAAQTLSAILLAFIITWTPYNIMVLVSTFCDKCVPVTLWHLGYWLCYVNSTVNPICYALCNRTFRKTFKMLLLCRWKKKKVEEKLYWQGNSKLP

[6] = target: Mu-type opioid receptor (Homo sapiens, UniProt P35372); assay: DRUGMATRIX: Opiate mu (OP3, MOP) radioligand binding (ligand: [3H] Diprenorphine); assay type: cell membranes, CHO-K1, Membrane; details: cho-k1; Not Active = under 50% inhibition at 10 µM
Mu-type opioid receptor, sequence (P35372 whole entry): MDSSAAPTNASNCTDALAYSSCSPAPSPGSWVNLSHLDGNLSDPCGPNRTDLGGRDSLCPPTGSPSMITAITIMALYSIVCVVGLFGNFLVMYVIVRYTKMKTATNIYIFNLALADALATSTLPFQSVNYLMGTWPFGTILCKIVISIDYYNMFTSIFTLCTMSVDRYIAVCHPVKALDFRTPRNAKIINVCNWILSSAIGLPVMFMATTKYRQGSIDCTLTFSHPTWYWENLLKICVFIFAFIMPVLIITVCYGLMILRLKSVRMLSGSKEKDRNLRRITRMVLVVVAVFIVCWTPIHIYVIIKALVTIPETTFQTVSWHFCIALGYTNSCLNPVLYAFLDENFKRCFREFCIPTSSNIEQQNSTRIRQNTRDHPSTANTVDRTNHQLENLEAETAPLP

[7] = target: Cytochrome P450 2C19 (Homo sapiens, UniProt P33261); details: bti-tn-5b1-4; also: in other assays of this panel Not Active means under 50% inhibition at 10 µM
Cytochrome P450 2C19, sequence (P33261 whole entry): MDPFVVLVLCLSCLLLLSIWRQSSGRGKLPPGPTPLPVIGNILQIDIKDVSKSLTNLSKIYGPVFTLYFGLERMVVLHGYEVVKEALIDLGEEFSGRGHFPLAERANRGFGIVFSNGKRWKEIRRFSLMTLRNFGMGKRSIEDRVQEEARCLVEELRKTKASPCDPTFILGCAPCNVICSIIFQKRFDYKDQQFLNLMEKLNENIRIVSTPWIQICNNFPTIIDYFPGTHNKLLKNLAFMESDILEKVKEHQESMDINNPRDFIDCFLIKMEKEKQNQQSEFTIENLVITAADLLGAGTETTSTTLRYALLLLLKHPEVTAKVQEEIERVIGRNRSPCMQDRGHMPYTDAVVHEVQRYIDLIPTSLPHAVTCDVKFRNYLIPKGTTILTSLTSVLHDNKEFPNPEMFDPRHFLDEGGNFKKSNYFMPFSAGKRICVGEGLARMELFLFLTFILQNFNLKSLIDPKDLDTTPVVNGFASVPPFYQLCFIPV

Cc1c(F)c(N2CCNC(C)C2)cc2c1c(=O)c(C(=O)O)cn2C1CC1 (stereo not drawn) [GREPAFLOXACIN]
Not Active: IC50 [1] | Ki [1] | IC50 [2] | IC50 [3] | IC50 [4] | IC50 [5] | IC50 [6] | IC50 [7] | Ki [7]

N=C(N)N/N=C/c1c(Cl)cccc1Cl [GUANABENZ]
Not Active: IC50 [1] | Ki [1] | IC50 [2] | IC50 [3] | IC50 [4] | IC50 [5] | IC50 [6] | IC50 [7] | Ki [7]

C[C@]12CCC(=O)C=C1CC[C@@H]1[C@@H]2[C@@H](O)C[C@@]2(C)[C@H]1CC[C@]2(O)C(=O)CO [HYDROCORTISONE]
Not Active: IC50 [1] | Ki [1] | IC50 [2] | IC50 [3] | IC50 [4] | IC50 [5] | IC50 [6] | IC50 [7] | Ki [7]

NC[C@H]1O[C@H](O[C@H]2[C@H](O)[C@@H](O[C@H]3O[C@H](CO)[C@@H](O)[C@H](N)[C@H]3O)[C@H](N)C[C@@H]2N)[C@H](O)[C@@H](O)[C@@H]1O [KANAMYCIN]
Not Active: IC50 [1] | Ki [1] | IC50 [2] | IC50 [3] | IC50 [4] | IC50 [5] | IC50 [6] | IC50 [7] | Ki [7]

CC(C(=O)O)c1ccc(CC2CCCC2=O)cc1 (stereo not drawn) [LOXOPROFEN]
Not Active: IC50 [1] | Ki [1] | IC50 [2] | IC50 [3] | IC50 [4] | IC50 [5] | IC50 [6] | IC50 [7] | Ki [7]

Cc1cccc(Nc2ccccc2C(=O)O)c1C [MEFENAMIC ACID]
Not Active: IC50 [1] | Ki [1] | IC50 [2] | IC50 [3] | IC50 [4] | IC50 [5] | IC50 [6] | IC50 [7] | Ki [7]

CC(=O)O[C@]1(C(C)=O)CC[C@H]2[C@@H]3C=C(C)C4=CC(=O)CC[C@]4(C)[C@H]3CC[C@@]21C [MEGESTROL ACETATE]
Not Active: IC50 [1] | Ki [1] | IC50 [2] | IC50 [3] | IC50 [4] | IC50 [5] | IC50 [6] | IC50 [7] | Ki [7]

COc1ccccc1OCC(O)COC(N)=O (stereo not drawn) [METHOCARBAMOL]
Not Active: IC50 [1] | Ki [1] | IC50 [2] | IC50 [3] | IC50 [4] | IC50 [5] | IC50 [6] | IC50 [7] | Ki [7]

CN(Cc1cnc2nc(N)nc(N)c2n1)c1ccc(C(=O)N[C@@H](CCC(=O)O)C(=O)O)cc1 [METHOTREXATE]
Not Active: IC50 [1] | Ki [1] | IC50 [2] | IC50 [3] | IC50 [4] | IC50 [5] | IC50 [6] | IC50 [7] | Ki [7]

COC(=O)c1ccccc1O [METHYL SALICYLATE]
Not Active: IC50 [1] | Ki [1] | IC50 [2] | IC50 [3] | IC50 [4] | IC50 [5] | IC50 [6] | IC50 [7] | Ki [7]

COc1ccc2cc(CCC(C)=O)ccc2c1 [NABUMETONE]
Not Active: IC50 [1] | Ki [1] | IC50 [2] | IC50 [3] | IC50 [4] | IC50 [5] | IC50 [6] | IC50 [7] | Ki [7]

O=C(O)c1cccnc1 [NIACIN]
Not Active: IC50 [1] | Ki [1] | IC50 [2] | IC50 [3] | IC50 [4] | IC50 [5] | IC50 [6] | IC50 [7] | Ki [7]

C[C@]12C/C(=C/O)C(=O)C[C@@H]1CC[C@@H]1[C@@H]2CC[C@@]2(C)[C@H]1CC[C@]2(C)O [OXYMETHOLONE]
Not Active: IC50 [1] | Ki [1] | IC50 [2] | IC50 [3] | IC50 [4] | IC50 [5] | IC50 [6] | IC50 [7] | Ki [7]

CC(C)(CO)C(O)C(=O)NCCCO (stereo not drawn) [PANTHENOL]
Not Active: IC50 [1] | Ki [1] | IC50 [2] | IC50 [3] | IC50 [4] | IC50 [5] | IC50 [6] | IC50 [7] | Ki [7]

CCCCC1C(=O)N(c2ccccc2)N(c2ccccc2)C1=O [PHENYLBUTAZONE]
Not Active: IC50 [1] | Ki [1] | IC50 [2] | IC50 [3] | IC50 [4] | IC50 [5] | IC50 [6] | IC50 [7] | Ki [7]

Cc1cccc(Nc2cc(Cl)nc(SCC(=O)O)n2)c1C [PIRINIXIC ACID]
Not Active: IC50 [1] | Ki [1] | IC50 [2] | IC50 [3] | IC50 [4] | IC50 [5] | IC50 [6] | IC50 [7] | Ki [7]

CC[C@H](C)C(=O)O[C@H]1C[C@H](O)C=C2C=C[C@H](C)[C@H](CC[C@@H](O)C[C@@H](O)CC(=O)O)[C@H]21 [PRAVASTATIN]
Not Active: IC50 [1] | Ki [1] | IC50 [2] | IC50 [3] | IC50 [4] | IC50 [5] | IC50 [6] | IC50 [7] | Ki [7]
